Experimental data: patent publication US8008250B2, “Macrocyclic compounds and compositions useful as BACE inhibitors” (Novartis AG, priority 2005, dated 2011)

Legend:
human BACE = biological target: T1, human BACE (Homo sapiens, UniProt P56817); experiment: Test 1: Inhibition of Human BACE; type: biochemical; settings: test not named; sentence follows 'at least one of the above-indicated tests'; assigned to BACE Test 1
T1 construct: Recombinant BACE (extracellular domain, expressed in baculovirus and purified using standard methods); made in house
Description: Test 1: Inhibition of Human BACE
Recombinant BACE (extracellular domain, expressed in baculovirus and purified using standard methods) at 6 nM concentration is incubated with the test compound at various concentrations for 1 hour at room temperature in 100 mM acetate buffer, pH 4.5, containing 0.1% CHAPS. Synthetic peptide substrate Mca-Ser-Glu-Val-Asn-Leu-Asp-Ala-Glu-Phe-Lys(DNP) (SEQ ID NO: 1) is added to a final concentration of 3 μM and the increase in fluorescence is recorded at excitation of 325 nm and emission at 400 nm in a microplate spectro-fluorimeter for 20 minutes in 1-minute intervals. IC50 values are calculated from percentage of inhibition of BACE-activity as a function of the test compound concentration.

T1 sequence (P56817 46-457 limits assumed): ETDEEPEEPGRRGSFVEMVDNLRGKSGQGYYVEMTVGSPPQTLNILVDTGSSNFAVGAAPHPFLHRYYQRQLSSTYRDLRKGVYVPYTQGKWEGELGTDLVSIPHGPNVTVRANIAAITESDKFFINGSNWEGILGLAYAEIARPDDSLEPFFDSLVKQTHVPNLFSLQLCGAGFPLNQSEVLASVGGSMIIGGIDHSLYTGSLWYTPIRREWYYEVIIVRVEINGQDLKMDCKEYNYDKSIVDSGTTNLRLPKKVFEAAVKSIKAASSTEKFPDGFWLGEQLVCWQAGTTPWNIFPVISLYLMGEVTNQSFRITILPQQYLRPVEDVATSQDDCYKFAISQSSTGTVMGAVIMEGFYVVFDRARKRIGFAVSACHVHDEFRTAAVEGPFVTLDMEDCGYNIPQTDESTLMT

| SMILES | IC50 (human BACE) [nM] | melting point [°C] |
| --- | --- | --- |
| CC(C)c1cccc(CNC[C@@H](O)[C@@H]2Cc3cccc(c3)CCCCCCC(=O)N(C)[C@@H](C)C(=O)N2)c1 [Example 4, (3S,6S)-3-[(R)-1-Hydroxy-2-(3-isopropyl-benzylamino)-ethyl]-6,7-dimethyl-4,7-diaza-bicyclo[13.3.1]nonadeca-1(18),15(19),16-triene-5,8-dione] | 250 |  |
| CC(C)c1cccc(CNC[C@@H](O)[C@@H]2Cc3cccc(c3)OCCCCS(=O)(=O)C[C@@H](C)C(=O)N2)c1 [Example 6, (9S,12S)-12-[(R)-1-Hydroxy-2-(3-isopropyl-benzylamino)-ethyl]-9-methyl-7,7-dioxo-2-oxa-7lambda*6*-thia-11-aza-bicyclo[12.3.1]octadeca-1(18),14,16-trien-10-one] |  | 148 to 150 |
| CC(C)c1cccc(CNC[C@@H](O)[C@@H]2Cc3cccc(c3)OCCCCCC(=O)N(C)[C@@H](C)C(=O)N2)c1 [Example 1, (10S,13S)-13-[(R)-1-Hydroxy-2-(3-isopropyl-benzylamino)-ethyl]-9,10-dimethyl-2-oxa-9,12-diaza-bicyclo[13.3.1]nonadeca-1(19),15,17-triene-8,11-dione] |  | 132 to 135 |
